Results from patent publication US12097202B2 (Kadmon Corporation, LLC, priority 2022, dated 2024).
Structures can show the parent of a compound that is named as a salt.

Test: Solubility of belumosudil mesylate
Type: physicochemical

CC(C)NC(=O)COc1cccc(-c2nc(Nc3ccc4[nH]ncc4c3)c3ccccc3n2)c1 [Belumosudil mesylate, 2-{3-[4-(1H-indazol-5-ylamino)-2-quinazolinyl]phenoxy}-N-(propan-2-yl) acetamide methanesulfonate (1:1)]
solubility in DMSO (DMSO): soluble | solubility in methanol and DMF (methanol and DMF): slightly soluble | solubility in water (water): practically insoluble
